# “Also recorded” adds a separate entry of the source. Read-outs that look alike come from different tables or passages of the source.
# What was measured:
# [1] = Peracetic acid concentration in aqueous solution over time, Lamotte peracetic acid test kit (code 7191-01); format: physicochemical; conditions: with or without copper hydroxide / metal ions
# Excerpt: Those skilled in the art know how to monitor levels of peracetic in solutions. For instance, it is known to use iodometric titration (F. P. Greenspan and D. G. MacKellar, 1948, Anal. Chem., 20, 1061) or to use analytical test strips. Suitable test strips include those manufactured by Merck and which are currently available under two different formats (i.e. 5-50 ppm and 100-500 ppm). These test strips provide a rapid, convenient semi-quantitative method of determining peracetic levels. LaMotte Company (Chestertown, Md., USA) also provides a test kit (code 7191-01) for titrating peracetic acid.
# Peracetic acid was generated by admixing with water a powdered product which is hereinafter called ATO CIDE. More particularly, 2 grams of the powdered product identified hereinafter under the name ATO CIDE was added and mixed for 10 minutes with in 1 liter of water, to give a solution of 2 g/L ATO CIDE. ATO CIDE is a powdered mixture consisting of:
# (§1) Then, 100 mL of the above-mentioned solution of peracetic acid (i.e ATO CIDE solution) was mixed for 5 minutes with 0.1 g of a powdered product sold under the trademark PARASOL WG®. PARASOL WG® is a powdered product comprising 50% elemental copper as copper hydroxide.
# as §1, with “Then, a” for “Then,”, “0.2 mL of a complexing agent (PBTCA) until the sequestering agent was dissolved completely, and then” for “with”, “WG® is added and dissolved with the resulting mixture.” for “WG®.”
# Then mixtures were prepared as per below table:
# (§2) Then mixtures #1 to #5 were prepared as per below table:
# (§3) Mixtures were prepared at room temperature (around 20° C.) as per the following table: […]
# strawberry [2] = assay: Phytotoxicity to strawberry (statement); conditions: applied individually to strawberry; stated, no data shown
# [3] = pH of the mixtures over time; format: physicochemical; conditions: Trt 1 pH (0.1%)
# Experimental: as §2, §3
# strawberry [4] = conditions: in vivo
compound,measurement,setting,value
"O=P(O)(O)O [Phosphoric acid, phosphoric acid]",effect on stability of peracetic acid (conclusion in words),[1],prevented peracetic acid from being decomposed
same,effect on stability of peracetic acid (conclusion in words),[1]; listed as phosphoric acid,prevented the decomposition of peracetic acid by metal ions
"OP(O)O [Phosphorous acid, phosphorous acid]",effect on stability of peracetic acid (conclusion in words),[1],stabilizes the peracetic acid very well
same,phytotoxicity,strawberry [2],phytotoxic
"OB(O)O [Boric acid, boric acid]",effect on stability of peracetic acid (conclusion in words),[1],stabilizes PERACETIC ACID in solution for a longer period of time; also recorded: not as good as phosphoric acid in chelating copper hydroxide
"NS(=O)(=O)O [Sulfamic acid, sulfamic acid]",effect on stability of peracetic acid (conclusion in words),[1],prevented peracetic acid from being decomposed
"OP(O)O [Trt 1, Phosphorous acid]",pH,"[3]; Example 15, 24 hrs, Trt 2 pH (0.2%)",2.53
same,pH,"[3]; Example 15, 48 hrs, Trt 2 pH (0.2%)",2.80
same,pH,"[3]; Example 15, 120 hrs, Trt 2 pH (0.2%)",2.90
same,pH,"[3]; Example 15, 148 hrs, Trt 2 pH (0.2%)",2.85
same,pH,"[3]; Example 15, 172 hrs, Trt 2 pH (0.2%)",2.80
same,pH,"[3]; Example 15, room temperature, Time zero (Trt 3-5: after the additions)",2.80
copper,phytotoxicity,strawberry [4],phytotoxic
